Measured values reported in DBAASP.
Values after ≈ are worked out from the molar mass of the structure shown.

Legend:
Experiment in all cases: ≥ marks a high value that may be exact or a test limit, other limits are often not marked, values filed in µg/mL are converted to µM
[1] = system: Escherichia coli NCTC 10418
Pasteurella multocida = system: Pasteurella multocida
Bacillus cereus = system: Bacillus cereus
[2] = system: Staphylococcus epidermidis
Escherichia coli = system: Escherichia coli
Leuconostoc lactis = system: Leuconostoc lactis
Listeria innocua = system: Listeria innocua
Staphylococcus aureus = system: Staphylococcus aureus
Micrococcus luteus = system: Micrococcus luteus
Streptococcus uberis = system: Streptococcus uberis
[3] = system: Staphylococcus aureus KCTC 1621
[4] = system: Pseudomonas aeruginosa KCTC 1637
[5] = system: Bacillus subtilis KCTC 3068
[6] = system: Escherichia coli KCTC 1682
[7] = system: Staphylococcus epidermidis KCTC 1917
[8] = system: Salmonella typhimurium KCTC 1926
Escherichia coli K-12 = system: Escherichia coli K-12
[9] = system: Staphylococcus aureus USA 300
[10] = system: Micrococcus luteus ATCC 9341

MIC (Pasteurella multocida)	MIC (Bacillus cereus)	MIC [2]	MIC (Escherichia coli)	MIC (Leuconostoc lactis)	MIC (Listeria innocua)	MIC (Staphylococcus aureus)	MIC (Micrococcus luteus)	MIC (Streptococcus uberis)	Structure (SMILES)	other results
≥ 61.4 µM	15.3 µM (≈ 25 µg/mL)	15.3 µM (≈ 25 µg/mL)	> 61.4 µM	3.68 µM (≈ 6 µg/mL)	15.3 µM (≈ 25 µg/mL)	15.3 µM (≈ 25 µg/mL)	7.36 µM (≈ 12 µg/mL)	7.36 µM (≈ 12 µg/mL)	CC[C@H](C)[C@H](NC(=O)[C@H](CC(=O)O)NC(=O)[C@H](Cc1ccccc1)NC(=O)[C@H](CC(C)C)NC(=O)CN)C(=O)N[C@H](C(=O)N[C@@H](CCCCN)C(=O)N[C@@H](CCCCN)C(=O)N[C@H](C(=O)N[C@@H](C)C(=O)N[C@@H](CO)C(=O)N[C@H](C(=O)N[C@H](C(=O)NCC(=O)NCC(=O)N[C@@H](CC(C)C)C(N)=O)[C@@H](C)CC)C(C)C)C(C)C)[C@@H](C)CC [GLFDIIKKVASVIGGL]	
≥ 60.8 µM	≥ 60.8 µM	≥ 60.8 µM	60.8 µM (≈ 99.9 µg/mL)	7.29 µM (≈ 12 µg/mL)	30.4 µM (≈ 50 µg/mL)	> 60.8 µM	≥ 60.8 µM	≥ 60.8 µM	CC[C@H](C)[C@H](NC(=O)[C@H](CCCCN)NC(=O)[C@H](CO)NC(=O)[C@H](C)NC(=O)[C@@H](NC(=O)[C@H](CCCCN)NC(=O)[C@H](CCCCN)NC(=O)[C@@H](NC(=O)[C@@H](NC(=O)[C@H](CC(=O)O)NC(=O)[C@H](Cc1ccccc1)NC(=O)[C@H](CC(C)C)NC(=O)CN)C(C)C)[C@@H](C)CC)C(C)C)C(=O)NCC(=O)NCC(=O)N[C@@H](CC(C)C)C(N)=O [GLFDVIKKVASKIGGL]	
≥ 55.1 µM	≥ 55.1 µM	≥ 55.1 µM	> 55.1 µM	27.6 µM (≈ 50 µg/mL)	≥ 55.1 µM	> 55.1 µM	≥ 55.1 µM	≥ 55.1 µM	CC[C@H](C)[C@H](NC(=O)[C@@H](NC(=O)[C@H](CO)NC(=O)[C@H](C)NC(=O)[C@@H](NC(=O)[C@H](CCCCN)NC(=O)[C@H](CCCCN)NC(=O)[C@@H](NC(=O)[C@@H](NC(=O)[C@H](CC(=O)O)NC(=O)[C@H](Cc1ccccc1)NC(=O)[C@H](CC(C)C)NC(=O)CN)C(C)C)[C@@H](C)CC)C(C)C)C(C)C)C(=O)NCC(=O)N[C@@H](CC(C)C)C(=O)N[C@@H](C)C(=O)N[C@@H](CO)C(=O)N1CCC[C@H]1C(=O)O [GLFDVIKKVASVIGLASP]	
≥ 39.7 µM	≥ 39.7 µM	≥ 39.7 µM	> 39.7 µM	≥ 39.7 µM	≥ 39.7 µM	> 39.7 µM	≥ 39.7 µM	≥ 39.7 µM	CC[C@H](C)[C@H](NC(=O)[C@H](CO)NC(=O)CNC(=O)[C@@H](NC(=O)[C@H](CC(C)C)NC(=O)CN)[C@@H](C)CC)C(=O)NCC(=O)N[C@@H](CCCCN)C(=O)N[C@@H](C)C(=O)N[C@@H](CC(C)C)C(=O)NCC(=O)NCC(=O)N[C@@H](CC(C)C)C(=O)N[C@@H](CC(C)C)C(=O)N[C@H](C(=O)N[C@@H](CC(=O)O)C(=O)N[C@H](C(=O)N[C@@H](CC(C)C)C(=O)N[C@@H](CCCCN)C(=O)N1CCC[C@H]1C(=O)N[C@@H](CCCCN)C(=O)N[C@@H](CC(C)C)C(=O)N[C@@H](CCC(N)=O)C(=O)N[C@@H](C)C(=O)N[C@@H](C)C(=O)N[C@@H](CO)C(=O)O)C(C)C)C(C)C [GLIGSIGKALGGLLVDVLKPKLQAAS]	

More lines, now with the values behind:

Structure (SMILES)	MIC (Pasteurella multocida)	MIC (Bacillus cereus)	MIC [2]	MIC (Escherichia coli)	MIC (Leuconostoc lactis)	MIC (Listeria innocua)	MIC (Staphylococcus aureus)	MIC (Micrococcus luteus)	MIC (Streptococcus uberis)	other results
CC[C@H](C)[C@H](NC(=O)[C@H](CCCCN)NC(=O)[C@H](C)NC(=O)[C@H](C)N)C(=O)N[C@H](C(=O)N[C@@H](CC(C)C)C(=O)N[C@@H](CC(N)=O)C(=O)N1CCC[C@H]1C(=O)N[C@@H](CCCCN)C(=O)N[C@@H](Cc1ccccc1)C(=O)N[C@@H](CCCN=C(N)N)C(=O)N[C@H]1CSSC[C@@H](C(=O)O)NC(=O)[C@H](Cc2ccccc2)NC(=O)[C@H](C)NC(=O)[C@H](C)NC(=O)[C@H](Cc2ccccc2)NC1=O)[C@@H](C)CC [AAKIILNPKFRCFAAFC]										MIC [1]: ≥ 160 µM
CC[C@H](C)[C@H](NC(=O)[C@@H](NC(=O)[C@H](CO)NC(=O)[C@H](C)NC(=O)[C@@H](NC(=O)[C@H](CCCCN)NC(=O)[C@H](CCCCN)NC(=O)[C@@H](NC(=O)[C@@H](NC(=O)[C@H](CC(=O)O)NC(=O)[C@H](Cc1ccccc1)NC(=O)[C@H](CC(C)C)NC(=O)CN)C(C)C)[C@@H](C)CC)C(C)C)C(C)C)C(=O)NCC(=O)NCC(=O)N[C@@H](C)C(N)=O [GLFDVIKKVASVIGGA]	≥ 63.5 µM	≥ 63.5 µM	≥ 63.5 µM	> 63.5 µM	15.9 µM (≈ 25 µg/mL)	≥ 63.5 µM	> 63.5 µM	≥ 63.5 µM	≥ 63.5 µM	
CC[C@H](C)[C@H](N)C(=O)NCC(=O)N[C@@H](CCCCN)C(=O)N[C@@H](CCCCN)C(=O)N[C@@H](Cc1ccccc1)C(=O)N[C@@H](CCCCN)C(=O)N[C@@H](CCCN=C(N)N)C(=O)N[C@H](C(=O)N[C@H](C(=O)N[C@@H](CCC(N)=O)C(=O)N[C@@H](CCCN=C(N)N)C(=O)N[C@H](C(=O)N[C@@H](CCCCN)C(=O)N[C@@H](CCCCN)C(=O)N[C@@H](Cc1ccccc1)C(=O)N[C@@H](CC(C)C)C(=O)N[C@@H](CCCN=C(N)N)C(=O)N[C@@H](CCCCN)C(=O)N[C@@H](CC(C)C)C(=O)O)[C@@H](C)CC)C(C)C)[C@@H](C)CC [IGKKFKRIVQRIKKFLRKL]										MIC [3]: 4 µM (≈ 9.6 µg/mL); MIC [4]: 8 µM (≈ 19.2 µg/mL); MIC [5]: 2 µM (≈ 4.8 µg/mL); MIC [6]: 8 µM (≈ 19.2 µg/mL); MIC [7]: 2 µM (≈ 4.8 µg/mL); MIC [8]: 4 µM (≈ 9.6 µg/mL)
CC[C@H](C)[C@H](NC(=O)[C@@H](N)CCCCN)C(=O)N[C@@H](CCCCN)C(=O)N[C@@H](CC(C)C)C(=O)N[C@@H](Cc1ccccc1)C(=O)N[C@@H](CCCCN)C(=O)N[C@@H](CCCCN)C(=O)N[C@@H](Cc1c[nH]c2ccccc12)C(=O)N1CCC[C@H]1C(=O)N[C@@H](CCCCN)C(=O)N[C@@H](Cc1ccccc1)C(=O)N[C@@H](CC(C)C)C(=O)N[C@@H](Cc1cnc[nH]1)C(=O)N[C@@H](CC(C)C)C(=O)N[C@@H](C)C(=O)N[C@@H](CCCCN)C(=O)N[C@@H](CCCCN)C(=O)N[C@@H](Cc1ccccc1)C(N)=O [KIKLFKKWPKFLHLAKKF]										MIC [3]: 2 µM (≈ 4.6 µg/mL); MIC [4]: 2 µM (≈ 4.6 µg/mL); MIC [5]: 1 µM (≈ 2.3 µg/mL); MIC [6]: 2 µM (≈ 4.6 µg/mL); MIC [7]: 1 µM (≈ 2.3 µg/mL); MIC [8]: 2 µM (≈ 4.6 µg/mL)
CC[C@H](C)[C@H](NC(=O)[C@H](CCCCN)NC(=O)[C@H](CCC(N)=O)NC(=O)[C@@H](NC(=O)[C@@H](NC(=O)[C@H](CCCCN)NC(=O)[C@@H](N)CCCCN)[C@@H](C)CC)C(C)C)C(=O)N[C@@H](CCCCN)C(=O)N[C@@H](CC(=O)O)C(=O)N[C@@H](Cc1ccccc1)C(=O)N[C@@H](CC(C)C)C(=O)N[C@@H](CCCCN)C(N)=O [KKIVQKIKDFLK]										MIC (Escherichia coli K-12): ≥ 106 µM
CC[C@H](C)[C@H](NC(=O)[C@H](CC(C)C)NC(=O)CNC(=O)[C@H](CO)NC(=O)[C@@H](NC(=O)[C@H](CC(C)C)NC(=O)[C@@H](N)CC(N)=O)C(C)C)C(=O)N[C@@H](CCC(=O)O)C(=O)N[C@@H](C)C(=O)N[C@@H](CCCNC(=N)N)C(=O)N[C@@H](CCCCN)C(=O)N[C@@H](Cc1ccc(O)cc1)C(=O)N[C@@H](CC(C)C)C(=O)N[C@@H](CCC(=O)O)C(=O)N[C@@H](CCC(N)=O)C(=O)N[C@@H](CC(C)C)C(=O)N[C@@H](Cc1cnc[nH]1)C(=O)N[C@@H](CCCNC(=N)N)C(=O)N[C@@H](CCCCN)C(=O)N[C@@H](CC(C)C)C(=O)N[C@@H](CCCCN)C(=O)N[C@@H](CC(N)=O)C(=O)N[C@@H](CCCNC(=N)N)C(=O)N[C@@H](CCCCN)C(=O)N[C@H](C(=O)O)C(C)C [NLVSGLIEARKYLEQLHRKLKNRKV]										MIC (Escherichia coli K-12): ≥ 92 µM; MIC [9]: ≥ 92 µM
CC[C@H](C)[C@H](NC(=O)[C@H](CC(C)C)NC(=O)[C@@H]1CCCN1C(=O)[C@H](Cc1ccccc1)NC(=O)[C@H](CCCCN)NC(=O)[C@H](Cc1ccccc1)NC(=O)[C@@H]1CCCN1C(=O)[C@H](Cc1ccccc1)NC(=O)[C@H](Cc1ccccc1)NC(=O)[C@@H]1CCCN1C(=O)[C@H](Cc1ccccc1)NC(=O)[C@H](CCCN=C(N)N)NC(=O)[C@@H](N)CCCN=C(N)N)C(N)=O [RRFPFFPFKFPLI]										MIC [10]: 0.4 µM (≈ 0.684 µg/mL)
